# Measurements: article PMC12555100, “Dextromethorphan Versus Dextrorphan: A Quantitative Comparison of Antitussive Potency Following Separate Administration of Metabolite” (Journal of Clinical Pharmacology, 2025)
# Where “and” joins values, the source holds several entries; their conditions need not be identical. Equal values may be shown once. Read-outs that look alike come from different tables or passages of the source.
# Columns and labels:
# [1] = Plasma concentrations of DEX and unconjugated DOR (HPLC), model-independent pharmacokinetics; assay type: in vivo, human; settings: for 24‐h plasma concentration: almost all subjects (except in 2 cases); for AUC / Cmax / Tmax: both sexes, human, oral
# Text: The clinical trial has been performed according to the Declaration of Helsinki and was approved by the North Sheffield Research and Ethics Committee (approval number NS98/183). All participants enrolled into the clinical trial have given informed consent. Data were collected from twenty‐three healthy non‐smoker volunteers (12 male) aged 19‐51 years who took part in a double‐blind randomized placebo controlled cross‐over study. […] The exclusion criteria were respiratory tract infection or acute cough within the last 4 weeks, receiving any medication within previous 2 weeks, and any medical condition which may interfere with the study. Preceding the visit day, the volunteer was asked to fast for 8 h, abstain from alcohol, and abstain from caffeinated drinks throughout the study day. Written informed consent was obtained from all volunteers. The study was approved by the […] Research and Ethics Committee. Subjects' cough response to citric acid challenge test was studied on three separate occasions (separated at least 7 days apart) following administration of (i) placebo; (ii) 40.5 mg dextromethorphan hydrobromide; (iii) 44.6 mg of dextrorphan‐D‐tartrate. The order of treatments (placebo, DEX, and DOR) was randomized across participants using a balanced Latin square design to ensure equal distribution of sequence effects. Blood samples for PK analysis were taken periodically (at 0, 1, 2, 3, 4, 5, 6, 8, 10, 12, and 24 h post administration of DEX and DOR).
# Plasma concentrations of DEX and unconjugated DOR were determined using high‐performance liquid chromatography with fluorometric detection according to the method of Chen et al.[25] The intra‐assay coefficient of variation for these analyses at a concentration of 2.5 ng/mL ranged from 6% to 13%. The lower limits of quantification were determined to be 0.3 ng/mL for DOR and 0.5 ng/mL for DEX.
# The percent of change in cough number relative to the baseline (t = 0) was plotted against time and the maximum reduction in cough response (Emax) and its […] (TEmax) were determined. The area under the percent of reduction in cough number against time between 0 until 24 h (AUEC0‐24 h) was calculated using the trapezoidal rule. The correlation between AUEC0‐24 h and area under plasma concentration time between zero and 24 h (AUC0‐24 h) of DEX, (endogenously) formed DOR and directly administered DOR was statistically examined using Spearman rank correlation test. The Friedman test (followed by Dunn's multiple comparison) was used to compare the AUC values of DEX and DOR, as well as the AUEC values, between the different arms of the study.
# [2] = test system: Caco‐2 monolayers; settings: cited from earlier work
# [3] = Population pharmacokinetic model (joint parent drug-metabolite model; two-compartment model for DOR given on its own); assay type: in vivo, human; settings: for Vd/F / Between‐subject variability of V/F: after administration of DEX; for Vd/F: taken as equal for DEX and DOR, read-out: V/F, volume of distribution; for Between‐subject variability of V/F: common to DEX and DOR
# Experimental: Pharmacokinetic/pharmacodynamic analysis (PKPD) of DEX and DOR was conducted using non‐linear mixed effects modelling with Monolix software, 2024R1 (Lixoft SAS, Antony, France). The analysis followed a sequential approach, where the PK parameters of both compounds were estimated initially, and then these were used alongside the cough data to build the PK/PD model. The model components are described below:
# A joint parent drug‐metabolite model[26] (Figure 1) was considered for DEX and DOR following administration of DEX with first‐pass effect and without dose apportionment. Different goodness‐of‐fit factors, such as corrected Bayesian information criterion (BICc), various diagnostic plots, such as visual predictive check used for final model selection. This model assumed a one‐compartment model for both compounds and unidirectional transformation of the parent drug to the metabolite in DEX arm of the study. The distribution of DOR after its administration on its own in a separate arm of the study was considered to follow a two‐compartment model. Inter‐individual variability of PK parameters was assumed to be log‐normally distributed. Proportional error model was used to model the intra‐individual variability.
# Figure 1 Schematic representation of the joint parent drug‐metabolite structural model with first‐pass effect and without dose‐apportionment used to describe the pharmacokinetics of dextromethorphan and dextrorphan following administration of dextromethorphan. F, bioavailability of the parent drug; DEX dose, dose of dextromethorphan; ka(DORDEX), absorption constant of dextromethorphan; ka(DOR), absorption constant of dextrorphan; kpm, transformation rate constant from parent to metabolite; VDEX and VDOR_DEX are the volume of the central compartment for the dextromethorphan and dextrorphan, respectively which are considered to be equal; k(DEX), elimination rate constant for dextromethorphan by other pathways; k(DOR), the elimination constant of dextrorphan.
# As shown, the concentration of DOR formed by the metabolism of DEX is higher than that of the DOR after preformed DOR is administered on its own. The joint parent drug‐metabolite model with first‐pass effect and without dose apportionment best described the plasma concentration‐time profile of DEX and unconjugated DOR following administration of DEX. The two‐compartment model fitted well to the data of DOR from the administration of preformed DOR. The goodness‐of‐fit of the combined models could be seen in the observed versus predicted plots and visual predictive check graphs of the models (Figure 4). […] Since there was not enough data in the absorption phase, the value of first‐order absorption rate constant for both DEX and preformed DOR was fixed to the reported values of 2.6 h^−1 23. To prevent the identifiability problem, equal extravascular apparent volume of distributions were considered for the parent drug and the metabolite in the joint model. It is important to emphasize that the primary focus of this study is on characterizing the PKPD relationship rather than on developing a detailed PK model. While a mechanistic PK model can provide insights, our primary objective can also be achieved using any empirical PK model, provided it adequately describes the data and supports the PKPD link. The selection of a one‐compartment model for DEX and a two‐compartment model for DOR reflects this practical approach and ensures compatibility with the data under different conditions. The disparity of the disposition model for DOR may indicate that formation kinetics from DEX masks the first phase of distribution when assessing the kinetics of formed DOR, whilst this becomes evident under direct administration of DOR.
# [4] = fixed in the model for DEX and directly administered (preformed) DOR, cited from earlier work
# [5] = test system: guinea pig brain slices; parameters: method as in PMID 2897648; settings: cited from earlier work
# [6] = plasma, mean, plasma, the administered compound itself (40.5 mg DEX HBr or 44.6 mg DOR-D-tartrate), unconjugated DOR, read-out: AUC0‐24 h, mean
# [7] = plasma, mean, plasma, the administered compound itself (40.5 mg DEX HBr or 44.6 mg DOR-D-tartrate), unconjugated DOR, read-out: Cmax, mean
# [8] = plasma, mean, plasma, the administered compound itself (40.5 mg DEX HBr or 44.6 mg DOR-D-tartrate), unconjugated DOR, read-out: Tmax, mean
# [9] = plasma, median, plasma, the administered compound itself, read-out: AUC0‐24 h, median
# [10] = plasma, median, plasma, the administered compound itself, read-out: Tmax, median
# [11] = both sexes, human, plasma, oral, population estimate
# [12] = population PK model, direct administration of DOR
# [13] = population estimate, after direct administration of DOR
Structure (SMILES),24‐h plasma concentration [1],"AUC [1, 6] [ng·h/mL]","Cmax [1, 7] [ng/mL]","Tmax [1, 8] [h]","AUC [1, 9] [ng·h/mL]","Tmax [1, 10] [h]","Permeability, DEX compared with DOR [2]","Vd/F [3, 11] [L]",Between‐subject variability of V/F ([3]; population PK model) [CV%],"ka, first-order absorption rate constant (fixed) [4]",Antiepileptic activity [5],further results
"COc1ccc2c(c1)[C@]13CCCC[C@@H]1[C@H](C2)N(C)CC3 [DEX, dextromethorphan]",below the limit of quantitation,26.7,3.5,1.8,16.7,1,comparable permeability,4870,48,2.6 h^−1 and 2.6 (fixed) h^−1,possess antiepileptic activity,"Cmax, median ([1]; median, plasma, the administered compound itself): 2.2 ng/mL; k el ([3]; both sexes, human, plasma, oral, population estimate, read-out: k(DEX), elimination rate constant for dextromethorphan by other pathways (converted)): 2.78e-05 s⁻¹; Between‐subject variability of k(DEX) ([3]; population PK model): 108 CV%; Between‐subject variability of kpm ([3]; population PK model): 43 CV%; kpm, transformation rate constant from parent (dextromethorphan) to metabolite (dextrorphan) ([3]; population estimate): 0.04 h⁻¹"
"CN1CC[C@@]23CCCC[C@@H]2[C@@H]1Cc1ccc(O)cc13 [DOR, dextrorphan]",below the limit of quantitation,17.4,4.1,1.1,18.9,1,comparable permeability,4870,48,2.6 (fixed) h^−1,possess antiepileptic activity,"Cmax and Tmax of formed DOR compared with direct administration of DOR ([1]; Friedman and Dunn's tests): not statistically different; AUC0−24 h of formed DOR (from DEX metabolism) compared with direct administration of DOR ([1]; Friedman and Dunn's tests, P‐value = .003, higher molar dose of DOR than of DEX): significantly higher; Cmax ([1]; plasma, median, plasma, the administered compound itself, read-out: Cmax, median): 3.8 ng/mL; Plasma concentration of DOR relative to DEX after administration of DEX ([1]; majority of measurement times): up to twofold higher; Between‐subject variability of k(DOR) ([3]; population PK model): 32 CV%; Between‐subject variability of V1/F(DOR) [3, 12]: 32 CV%; Between‐subject variability of k12(DOR) [3, 12]: 196 CV%; Between‐subject variability of k21(DOR) [3, 12]: 299 CV%; k(DOR), elimination constant of dextrorphan ([3]; population estimate): 0.2 h⁻¹; V1/F(DOR), volume of the central compartment [3, 13]: 6984 L; k12(DOR), transfer rate constant central to peripheral [3, 13]: 0.57 h⁻¹; k21(DOR), transfer rate constant peripheral to central [3, 13]: 0.60 h⁻¹; ka, first-order absorption rate constant (fixed) ([4]; listed as preformed DOR): 2.6 h⁻¹"
